Measurements reported in patent US12024552B2 (priority 2012, dated 2024).
Marks after values point to notes of the source that are not given here.

Assays:
[1] = tested on: Influenza A/Vietnam/1203/2004 (H5N1) virus; design: species or system BALB/c mice; conditions: mouse, in vivo
[2] = tested on: influenza H1N1 and Streptococcus pneumoniae; design: species or system mice; conditions: mouse, in vivo

Compound	Hazard Ratio (95% CI) [1]	Live/Total [1]	Mean Day of Death ± SD [1]	Median Survival [1]	survival, H5N1 [1] [%]	rescue from death [2]
CCOC(=O)C1=C[C@@H](OC(CC)CC)[C@H](NC(C)=O)[C@@H](N)C1 [Oseltamivir, oseltamivir]	4.8 (1.6-14.3)	4/7*	11.3 ± 0.6	Undefined	60	–
NC(=O)c1ncn([C@@H]2O[C@H](CO)[C@@H](O)[C@H]2O)n1 [Ribavirin, ribavirin]	–	–	–	–	–	failed to rescue animals from death
